Test results: patent US4058621A, “Iron complexes and foodstuffs containing them” (priority 1975, dated 1977)

Legend:
anemic rat = experiment: curative test: bioavailability of iron / hemoglobin repletion in the anemic rat (cyanomethemoglobin method of Drabkin); type: in vivo, rat (male albino, Wistar-derived stock); settings: for improvement in hemoglobin: 0.2 mg iron per day
From the text: The "curative" test results can be obtained in an oral administration technique, wherein the test animals are fed a prescribed iron-poor diet and are brought to an anemic condition through a controlled experimental technique. […] This test technique is generally standardized and has been used, with many variations, to determine bioavailability of iron in a variety of hematinics.
Reagent grade ferrous sulfate heptahydrate (Fisher Scientific Co.) was used without further purification at the calculated iron content of 20.1%.
Weanling male albino rats (Wistar-derived stock weighing between 45 and 55 grams) were placed in individual cages (newly galvanized) and provided with food and distilled water, ad libitum. The iron-low diet was that described by Pla and Fritz (J. Assoc. Offic. Anal. Chem. 54, 18 (1971). Weekly determination of hemoglobin content in tail blood was determined by the cyanomethemoglobin method of Drabkin adapted to 0.02 ml samples as recommended by these authors.
18 rats were selected for the test from a larger number to provide three matched groups of six, each having essentially equal initial hemoglobin values.
The solution prepared on Fridays was also dosed on Saturdays and Sundays. The solutions were administered by intragastric intubulation. The Negative Control Group received sham treatment consisting of plain water.
Body weights of all animals were recorded weekly and hemoglobin determinations were repeated after two and four weeks of dosing.

rats = settings: oral ingestion; cited from earlier work
rabbits = settings: intravenous route; cited from earlier work
humans = settings: not without risk of some serious side effects; cited from earlier work
[1] = maximum amount of iron which can be complexed with galacturonic acid; type: physicochemical
Experimental: 25.5 grams of high-purity galacturonic acid were dissolved in 300 ml of distilled water with the addition of solid sodium carbonate until a pH of 8 to 9 was reached. Separately, 24 grams of anhydrous ferric chloride were dissolved in 300 ml of distilled water and this solution was then added slowly, by dropping funnel, to the aforementioned solution of galacturonic acid, adjusting with solid sodium carbonate as needed to keep the mixture slightly alkaline, e.g. pH 8-9, and keeping the mixture stirred moderately. A beautiful brown-red solution was thus obtained. In order to ascertain the maximum amount of iron which can be complexed with galacturonic acid, a solution of 189.9 grams of anhydrous ferric chloride was dissolved in 1500 ml of distilled water, and this solution was added gradually to the above solution, with good stirring, and always adjusting the alkalinity to a pH of 8-9. […] A light-brown precipitate then appeared which, however, was dissolved again completely in about an hour's time and a perfectly clear, deep brown-red solution again resulted. From the total amounts of galacturonic acid used and ferric chloride solution consumed in the test, it was calculated that one mol weight of galacturonic acid will complex three atom weights of iron. Actually, 2,989 atom-weights of iron were consumed, an amount well within experimental error.

Compound	improvement in hemoglobin (anemic rat; after four weeks of dosing)	improvement in hemoglobin (anemic rat; after two weeks of dosing)	body weight gain (anemic rat; as compared to the Example 1 Group, differences were nominal)	efficacy in reversing mild deficiency anemia (anemic rat; conclusion of the test)	LD50 (rats)	LD50 (rabbits)	tolerated oral dosage (humans)	iron actually consumed per mol weight of galacturonic acid ([1]; pH 8-9)	iron complexed per mol weight of galacturonic acid ([1]; pH 8-9, calculated from amounts consumed)
ferrous sulfate	significant improvement	significant improvement	averaged slightly better	reversing mild deficiency anemia	5,000 milligrams per kilogram of body weight	99 milligrams per kilogram of body weight	about 300 milligrams	–	–
O=C[C@H](O)[C@@H](O)[C@@H](O)[C@H](O)C(=O)O [galacturonic acid]	–	–	–	–	–	–	–	2,989 atom-weights of iron	three
